The record followed here is US11358969B2, “Indole AHR inhibitors and uses thereof” (Ikena Oncology, Inc., priority 2017, dated 2022).

One may read the IC50 as the midpoint of a concentration-inhibition curve. Read a high IC50 as weaker potency.

The nature of series [1]: In Vitro Mouse liver S9 Metabolic Stability Assay (Example 1D). The series is classed as in vitro ADME. As to conditions: CD-1 mouse liver S9, 1 μM compound, 1 mg/mL S9 protein, 37° C., NADPH regenerating system, UDPGA, PAPS. The gist of the method:
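Compound at 1 μM final (0.1% DMSO) incubated at 37° C with pooled CD-1 mouse liver S9 (1 mg/mL protein) plus NADPH-regenerating system, UDPGA and PAPS. Samples at 0 and 60 min quenched in cold acetonitrile with internal standard; LC-MS/MS analyte/IS peak-area ratios give % remaining at 60 min.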

The target in series [2] is T1, AHR (UniProt P35869).
T1 construct: IC50
T1 sequence (P35869 1-848): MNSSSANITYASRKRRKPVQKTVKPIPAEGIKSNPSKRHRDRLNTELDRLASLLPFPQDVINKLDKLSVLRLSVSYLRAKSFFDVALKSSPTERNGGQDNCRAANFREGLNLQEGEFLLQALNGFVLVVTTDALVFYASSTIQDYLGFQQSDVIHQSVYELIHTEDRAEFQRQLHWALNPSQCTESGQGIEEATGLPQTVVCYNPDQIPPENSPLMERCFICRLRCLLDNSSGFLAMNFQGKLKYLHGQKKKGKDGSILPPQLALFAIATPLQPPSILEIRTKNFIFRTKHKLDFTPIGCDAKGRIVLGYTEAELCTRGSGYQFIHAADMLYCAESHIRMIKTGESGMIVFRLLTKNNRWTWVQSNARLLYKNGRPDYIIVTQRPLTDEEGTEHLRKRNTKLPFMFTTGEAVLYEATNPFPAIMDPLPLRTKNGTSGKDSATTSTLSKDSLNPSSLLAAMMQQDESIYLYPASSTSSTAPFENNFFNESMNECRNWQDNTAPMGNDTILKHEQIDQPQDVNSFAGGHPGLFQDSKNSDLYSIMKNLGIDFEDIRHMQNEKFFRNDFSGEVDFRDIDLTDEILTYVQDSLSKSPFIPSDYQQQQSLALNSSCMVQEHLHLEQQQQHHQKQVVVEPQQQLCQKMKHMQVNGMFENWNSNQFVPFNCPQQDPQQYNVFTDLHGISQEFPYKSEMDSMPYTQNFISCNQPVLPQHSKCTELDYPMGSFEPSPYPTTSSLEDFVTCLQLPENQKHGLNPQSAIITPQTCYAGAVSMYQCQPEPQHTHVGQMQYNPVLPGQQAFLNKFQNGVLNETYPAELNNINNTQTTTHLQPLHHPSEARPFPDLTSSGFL
As to the kind of experiment: DRE-Luciferase Reporter Assay (Example 1A). The series is classed as cell-based, murine or human. The following applies: cell line and AHR activating ligand not specified. As to the method: AHR binds to Dioxin Responsive Elements (DRE) upstream of genes that it activates. One measure of AHR activity is activation of a reporter gene, such as luciferase, downstream of one or multiple DRE elements. Luciferase activity will reflect activation and inhibition of AHR in the cells expressing his reporter.
Murine Hepa1-6 or Hepa-1c1c7 or other murine cell line with a DRE-luciferase reporter either stably or transiently transfected were plated in media in plates (96-well, 384-well or other plates) and incubated overnight at 37° C. in a CO2 incubator. Likewise, human HepG2 or other human cell line with a DRE-luciferase reporter either stably or transiently transfected were plated in media in plates (96-well, 384-well or other plates) and incubated overnight at 37° C. in a CO2 incubator.
The next day, an AHR activating ligand, such as TCDD, kynurenine, ITE (2-(1H-indole-3-ylcarbonyl)-4-thiazolecarboxylic methyl ester), VAF347, BNF (beta-naphthoflavone), FICZ (6-formylindolo(3,2-b) carbazole or other AHR ligands, was added with or without AHR antagonist.
Cells were incubated for 4, 15 or 24 hours or another time point and then lysed for determination of luciferase activity as a read-out of the AHR activation or inhibition. Luciferase was measured with a commercial kit such as the Promega Luciferase kit or any kit or reagents that provide the luciferin substrate for measuring luciferase activity. The level of luciferase with only activating ligand added was the maximum signal while the luciferase with no ligand was the minimum signal. IC50 values were determined as the concentration which inhibits half of the luciferase activity.
(In general: A reporter such as luciferase makes a cellular process visible.)

For series [3], the target named is T1, AHR. As to the kind of experiment: DRE-Luciferase Reporter Assay (Alternate Method) (Example 1B). It is filed as cell-based, murine or human. The following applies: cell line and AHR activating ligand not specified.

For the compound `CC(C)n1ccc2c(NCCc3c[nH]c4ccccc34)nc(-c3cncc(F)c3)nc21` [I-4, 2-(5-Fluoro-3-pyridyl)-N-[2-(1H-indol-3-yl)ethyl]-7-isopropyl-pyrrolo[2,3-d]pyrimidin-4-amine], the “Mouse S9 Stability: % Remaining After 60 Minutes” value in series [1] was found to be 0%. Moreover, the IC50 against AHR [2] and against AHR [3] was < 500 nM throughout.
For the compound `CC(C)n1cnc2c(NCCc3c[nH]c4ccccc34)nc(-c3cncc(F)c3)nc21` [I-6], the “Mouse S9 Stability: % Remaining After 60 Minutes” value in series [1] is 0%. In addition, the IC50 against AHR [2] and on AHR [3] was < 500 nM in each case.
In the case of `CC(C)n1cnc2c(NCCc3c[nH]c4cnccc34)nc(-c3cncc(F)c3)nc21` [I-9, 2-(5-Fluoro-3-pyridyl)-9-isopropyl-N-[2-(1H-pyrrolo[2,3-c]pyridin-3-yl)ethyl]purin-6-amine], the IC50 was 1000 to 1500 nM against AHR [2] and 500 to 1000 nM on AHR [3].
